Reference: US7553858B2, “Combination of flupirtine and tramadol” (priority 2003, dated 2009)
Read-outs that look alike come from different tables or passages of the source. Marks after values point to notes of the source that are not given here.

Tests used:
[1] = test system: seizures induced by subconvulsive pentetrazol doses; assay: Submaximal pentetrazol-induced seizures in mice; conditions: for Intensity (scored) of seizures / Number of animals with seizures: n = 10
Protocol: Male mice weighing 22-24 g were used. Animals housed in groups of 4 at standard conditions (temperature 22° C., humidity 40-60%) with food and water freely available. Lights were on from 06.00 a.m. to 06.00 p.m. The experiments were approved by the Animal Health Committee of the University which is responsible for the care and proper use of experimental animals.
Seizures were induced by intraperitoneal administration of pentetrazol at the subconvulsive dose of 30 mg/kg. The latency of the first seizure reaction, the seizure intensity and the number of animals with seizures were calculated for the first 10 min after i.p. injection of pentetrazol. Tramadol (hydrochloride) and flupirtine (maleate) were given intraperitoneally (15 min before pentetrazol administration). Drugs were prepared daily in 0.9% saline.

skeletal muscle tone = assay: Skeletal muscle tone in conscious rats; type: in vivo, Sprague-Dawley rats
Protocol: The experimental set-up has been described in all details in a former publication (Nickel et al. Arzn. Forsch./Drug Res. 1997; 47; 1081-6). Briefly, the measurement of skeletal muscle tone was done by recording successively the resistance of flexor and extensor muscles which counteracted the forced straightening and bending of the foot in the ankle joint. Pressure changes induced by the movements of the foot were continuously registered. Signals were analyzed on a personal computer. A corresponding computer program calculated the resistance values of flexors and extensors of the foot over 10 min recording periods.
Male Sprague-Dawley rats weighing 200-220 g were used.
Drugs (tramadol hydrochloride, flupirtine maleate) were prepared in physiological saline daily and given intraperitoneally.
The statistical analysis of differences between calculated and measured effects was carried out by the one-way ANOVA. Asterisks (*) indicate the significance level p<0.01.

[2] = test system: acetylcholine-induced writhing; assay: Acetylcholine-induced writhing in mice; type: in vivo; conditions: Mus musculus
Protocol: Male mice weighing 22-24 g were maintained in groups of 4 at standard conditions (temperature 22±1° C., humidity: 40-50%, dark-light rhythm: 12/12 h) with food and water freely available.
Abdominal contractions (writhings) were induced by intraperitoneal (i.p.) injection of acetylcholine (ACh) (chloride, 5.5. mg/kg) in a volume of 10 ml/kg. Immediately thereafter, mice were placed in a plastic cage and the number of abdominal contractions (writhes) was counted for 10 min. The total number of abdominal contractions per animal and number of animals with contractions were calculated.
Drugs were prepared daily. All compounds were given orally. Tramadol hydrochloride and flupirtine maleate were administered 30 min before acetylcholine injection.
ED50 values were estimated either by the ratio of animals protected from writhings to the number of animals in groups or by the mean number of writhes in each group of animals. The values were calculated by using linear regression. The statistical analysis of differences between calculated and measured effects was carried out by the Kruscall-Wallis test. Asterisks (*) indicate the significance level p<0.05.

tramadol-induced emesis = assay: Emetic response in conscious mongrel dogs; type: in vivo; conditions: Tramadol 14 mg/kg i.v., first 60 min, n = 5
Protocol: Mongrel dogs of both sexes weighing up to 15 kg were used. They were deprived of food overnight but allowed water ad libitum. Test compounds were administered to conscious animals by a slow infusion via the saphenous vein. Emetic responses (retches, strong salivation vomits with output) were monitored 60 min following drug administration (Borison and Wang, 1953). All dogs received 14 mg/kg tramadol i.v. repeatedly with an interval of one week. Positive responder dogs were selected and used in further experiments.

[3] = Flupirtine 10 mg/kg i.p., pentetrazol 30 mg/kg i.p.
[4] = Flupirtine 20 mg/kg i.p., pentetrazol 30 mg/kg i.p.
[5] = Tramadol 20 mg/kg i.p., 15 min before pentetrazol 30 mg/kg i.p.
[6] = Tramadol 40 mg/kg i.p., pentetrazol 30 mg/kg i.p.

Row | Structure (SMILES) | Intensity (scored) of seizures [1, 3] | Number of animals with seizures [1, 3] | Intensity (scored) of seizures [1, 4] | Number of animals with seizures [1, 4] | proconvulsive activity of tramadol, in the combination (in words) ([1]; mice, i.p., flupirtine with tramadol) | tramadol-induced skeletal muscle rigidity (in words) (skeletal muscle tone; Flupirtine 5-10 mg/kg i.p.) | ED50 ([2]; mice, oral, 30 min before ACh 5.5 mg/kg i.p., read-out: oral ED50-values calculated on the basis of animals protected from writhings) | ED50 ([2]; mice, oral, 30 min before ACh 5.5 mg/kg i.p., read-out: oral ED50-values calculated on the basis of reduction of number of writhings) | Intensity (scored) of seizures [1, 5] | Number of animals with seizures [1, 5] | Intensity (scored) of seizures [1, 6] | Number of animals with seizures [1, 6] | effect on acute seizures induced by subconvulsive doses of pentetrazol (in words) ([1]; mice, i.p.) | Changes in muscle tonus (in % compared to placebo) (skeletal muscle tone; Tramadol 20 mg/kg i.p.) | Changes in muscle tonus (in % compared to placebo) (skeletal muscle tone; Tramadol 40 mg/kg i.p.) | ED50 ([2]; read-out: oral ED50-values calculated on the basis of animals protected from writhings) | ED50 ([2]; read-out: oral ED50-values calculated on the basis of reduction of number of writhings) | Emetic response, % of dogs (tramadol-induced emesis)
1 | CCOC(=O)Nc1ccc(NCc2ccc(F)cc2)nc1N [Flupirtine] | 0.20 | 2 | 0.10 | 1 | almost completely attenuated | completely abolished | 27.2 mg/kg | 21 mg/kg | – | – | – | – | – | – | – | – | – | –
2 | COc1cccc([C@@]2(O)CCCC[C@H]2CN(C)C)c1 (racemic) [Tramadol, trans-(+/−)-2-[(Dimethylamino)methyl]-1-(3-methoxyphenyl)cyclohexanol] | – | – | – | – | – | – | – | – | 1.70* | 8* | 3.00* | 10* | proconvulsive effects | +12% | +47%* | 4.87 mg/kg | 4.14 mg/kg | 100%
